Assay results reported in US7884115B2, “Methods and compositions for the treatment of pain and other neurological conditions” (Allergan, Inc., priority 2004, dated 2011).

Key:
Format in all cases: in vivo
[1] = system: allodynia induced by phenylephrine (PE); experiment: Mouse phenylephrine (PE) model of allodynia
Procedure: (§1) In variants of this model, allodynia can be induced using 100 ng N-methyl-D-aspartate (NMDA) in DMSO intrathecally, or IP phenylephrine (PE) 100 ng/kg formulated in dH2O. In either model, the compounds are formulated in d-H2O and given in a volume of 1 ml/kg body weight for intraperitoneal (IP) dosing. Six mice per group are rendered allodynic by injection of one of the following agents: 300 ng/kg sulprostone in DMSO IP, 100 ng/kg phenylephrine (PE) in dH2O IP, or 100 ng NMDA in DMSO intrathecally (IT). Fifteen minutes before administration of the allodynia-inducing agents, the experimental mice are given 1 mg/kg NB-DNJ. Thirty (30) minutes following administration of NB-DNJ, the allodynic response is monitored as described by brushing the flank of each mouse with a paint brush. Five to six mice per group are rendered allodynic by injection of one of the following: 300 ng/kg sulprostone IP, 100 ng/kg phenylephrine (PE) IP, or 100 ng NMDA intrathecally (IT). Fifteen minutes prior to the induction of allodynia, the mice are given D-glucaro-delta-lactam IP at […], or 1 mg/kg. PE or NMDA-treated mice are given 1 mg/kg D-glucaro-delta-lactam IP.

[2] = system: allodynia induced by N-methyl-D-aspartate (NMDA); experiment: Mouse NMDA model of allodynia
Procedure: as §1, with “brush. Six mice per group are given one of the following: given 100 μg/kg NB-DNJ, 300 μg/kg NB-DNJ, 1 mg/kg NB-DNJ, or 3 mg/kg 1-deoxynojirimycin. After 15 minutes the mice are rendered allodynic by injection of 200 ng NMDA in DMSO IT. Starting thirty (30) minutes following administration of NB-DNJ, the allodynic response of each mouse is monitored by brushing the flank of the mouse with a paint brush.” for “brush.”

[3] = system: tactile allodynia in ligated Chung rats; experiment: Chung model (spinal nerve ligation, tactile allodynia, von Frey hairs); settings: Chung rat, 30 min after administration
Text: One standard model for chronic pain involves the surgical ligation of the L5 (and optionally the L6) spinal nerves on one side in experimental animals. Rats recovering from the surgery gain weight and display a level of general activity similar to that of normal rats. However, these rats develop abnormalities of the foot, wherein the hindpaw is moderately everted and the toes are held together. More importantly, the hindpaw on the side affected by the surgery appears to become sensitive to pain from low-threshold mechanical stimuli, such as that producing a faint sensation of touch in a human, within about 1 week following surgery. […]
Tactile allodynia is measured prior to and 30 minutes after drug administration using von Frey hairs that are a series of fine hairs with incremental differences in stiffness. […] The applied force has been calculated to range from 0.41 to 15.1 grams. […] The 50% paw withdrawal threshold is determined using the method of Dixon, W. J., Ann. […] The post-drug threshold is compared to the pre-drug threshold and the percent reversal of tactile sensitivity is calculated based on a normal threshold of 15.1 grams.
Control rats are given the vehicle alone. Thirty (30) minutes following administration rats are brushed with Von Freys hairs and tactile allodynia is measured using the method of Dixon, as described above. […]

SMILES | analgesic effect ([1]; 1 mg/kg IP, 15 min before PE 100 ng/kg IP, FIG. 4) | analgesic effect ([2]; 1 mg/kg IP, 15 min before NMDA 100 ng IT, FIG. 4) | reversal of induced allodynia (reduction in allodynic response to Von Freys hair stimulus) ([3]; 1 mg/kg intraperitoneally, FIG. 6) | reversal of the allodynic response ([1]; 1 mg/kg given 15 min before PE 100 ng/kg IP, FIG. 1) | pain reduction at different doses ([2]; 100 μg/kg, 300 μg/kg, 1 mg/kg, 15 min before 200 ng NMDA IT, FIG. 2) | reversal of the allodynic response ([2]; 1 mg/kg given 15 min before NMDA 100 ng IT, FIG. 1) | analgesic activity (allodynic reversal) ([3]; 1 mg/kg and 3 mg/kg intraperitoneally, FIG. 5)
O=C(O)[C@H]1NC(=O)[C@H](O)[C@@H](O)[C@@H]1O [D-glucaro-delta-lactam] | able to achieve an analgesic effect | able to achieve an analgesic effect | approximately 70% |  |  |  | 
CCCCN1C[C@H](O)[C@@H](O)[C@H](O)[C@H]1CO [NB-DNJ, N-butyl-1-deoxy-nojirimycin] |  |  |  | no reversal | dose response | significant reversal | analgesic
